This is an account of results in paper PMC10144242, “Design, Synthesis, In Vitro, and In Silico Insights of 5-(Substituted benzylidene)-2-phenylthiazol-4(5H)-one Derivatives: A Novel Class of Anti-Melanogenic Compounds” (Molecules, 2023).

Test [1] in a line: In vitro ROS scavenging assay (SIN-1, esterase, DCFH-DA). The conditions noted are these: 40 µM, SIN-1-generated ROS. On the procedure: DCFH-DA, esterase, and SIN-1 were used to measure the scavenging activity of in vitro ROS generated by SIN-1. DCFH-DA reacts with esterase to generate DCFH, which in turn, reacts with the in vitro ROS generated by SIN-1 to produce DCF. To evaluate the in vitro ROS scavenging effects of the (Z)-BPT derivatives, a concentration of 40 µM was used. […] Three derivatives, 2, 3, and 14, exerted strong scavenging abilities against both intracellular ROS and in vitro ROS.
The ROS scavenging abilities of (Z)-BPT derivatives 1–14 and Trolox were assessed in accordance with methods previously reported by Lebel and Bondy. Briefly, 50 mM phosphate buffer (pH 7.4) was dissolved with esterase (6 units/mL) and 1.25 mM DCFH-DA (2′,7′-dichlorodihydrofluorescein diacetate) from Molecular Probes (Eugene, OR, USA), maintained at 37 °C for 30 min, and kept on ice in the dark until use. […] Using a microplate reader (Berthold Advances GmbH & Co., Bad Wildbad, Germany), the fluorescence intensities of 2′,7′-dichlorofluorescein (DCF or oxidized DCFH) were examined at excitation and emission wavelengths of 485 nm and 535 nm, respectively. […]
Figure 11 The scavenging effects of (Z)-BPT derivatives 1–14 on (A) intracellular ROS and (B) in vitro ROS. ROS levels were assessed using an assay with SIN-1 (an ROS generator) and DCFH-DA (an ROS-sensitive fluorescence probe). […]

Test [2] in a line: ABTS cation radical scavenging assay. The conditions noted are these: 100 µM, 2 min in the dark. From the text:
In addition, it has been reported that antioxidants that scavenge radicals may inhibit excess melanogenesis, because melanogenesis can be triggered by various radicals. Therefore, the 2,2′-azino-bis(3-ethylbenzothiazoline-6-sulfonic acid) (ABTS) cation radical scavenging abilities of 14 (Z)-BPT derivatives were studied using Trolox as a positive control. The ABTS cation radical is formed by transferring one electron of ABTS to K2S2O8 (potassium persulfate). To obtain an ABTS cation radical solution, a 7.4 mM ABTS solution was mixed with 2.6 mM potassium persulfate and kept in the dark at room temperature for 24 h. After adjusting the absorbance of the ABTS cation radical solution to 0.700 ± 0.03 at 732 nm, the ABTS cation radical solution was mixed with test samples (1–14 and Trolox) to a final concentration of 100 µM and kept for 2 min in the dark. The radical scavenging effects were assessed based on the absorbance measured at 732 nm.
The antioxidant properties of (Z)-BPT derivatives 1–14 were assessed using the ABTS cation-free radical scavenging assay, as previously described. […] Then, methanol was used to dilute the ABTS cation-free radical solution to an absorbance of 0.70 ± 0.02 at 734 nm. […] The absorbance of each well was measured at 734 nm using a VersaMax ™ microplate reader (Molecular Devices, Sunnyvale, CA, USA). […]

Take `Cc1c(C)c2c(c(C)c1O)CCC(C)(C(=O)O)O2` (centres unmarked) [Trolox]: the “in vitro ROS scavenging activity” value in test [1] is “significantly decreased the enhanced ROS levels”. In test [2], the “ABTS cation radical scavenging (inhibition)” value is 81%.
